SMILES strings stand for the structures.

A word on the IC50: it is the concentration at which inhibition is half-maximal.

The test concerns the target recombinant human HDAC1 (Homo sapiens (Human), UniProt Q13547). The settings on record: for IC50: read-out: HDAC1 IC50.

recombinant human HDAC1, sequence (Q13547 whole entry): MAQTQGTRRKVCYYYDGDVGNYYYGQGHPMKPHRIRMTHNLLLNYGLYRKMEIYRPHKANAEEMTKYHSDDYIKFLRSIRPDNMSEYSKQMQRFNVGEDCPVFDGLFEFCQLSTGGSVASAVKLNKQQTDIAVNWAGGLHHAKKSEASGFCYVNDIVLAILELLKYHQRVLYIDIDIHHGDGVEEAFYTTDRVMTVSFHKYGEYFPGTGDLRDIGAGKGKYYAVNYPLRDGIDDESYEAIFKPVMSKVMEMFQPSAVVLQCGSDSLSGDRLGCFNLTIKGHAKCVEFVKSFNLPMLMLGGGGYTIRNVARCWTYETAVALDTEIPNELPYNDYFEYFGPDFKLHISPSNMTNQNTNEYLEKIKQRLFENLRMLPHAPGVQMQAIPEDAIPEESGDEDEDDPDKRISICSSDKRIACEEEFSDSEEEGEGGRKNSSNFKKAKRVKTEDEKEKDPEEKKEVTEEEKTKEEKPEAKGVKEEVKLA

On to `CC(C)Cc1sc(-c2nccs2)nc1C(=O)NCC(=O)NO` [CFH340], for which the “HDAC1 IC50” value is on record as “NA^a”. For the molecule `C=Cc1sc(-c2nccs2)nc1C(=O)NCCCNC(=O)CS` [CFH367-S], the 50% inhibitory concentration (IC50) was 1830 nM. Regarding `Cc1nc(-c2nc(C(=O)NCCCCC(=O)NO)c(C3CC3)s2)sc1C` [CFH395-M], the half-inhibitory concentration (IC50) is 50 nM. With `Cc1cnc(-c2nc(C(=O)NCCCCC(=O)NO)c(CC(C)C)s2)s1` [CFH397-2], the IC50 was 917 nM. The same measure, in the same setting: the figure for `Cc1nc(-c2nc(C(=O)NCCCCC(=O)NO)c(CC(C)C)s2)cs1` [CFH397] is 438 nM. Same read-out and setting: the figure for `CC(C)Cc1sc(-c2nccs2)nc1C(=O)NCCCCCCC(=O)NO` [CFH410] is 178 nM.

On to `CC(C)/C=C/c1sc(-c2nccs2)nc1C(=O)NCCCNC(=O)CS` [CFH411], for which the IC50 is 956 nM.

For the molecule `CC(C)Cc1sc(-c2nccs2)nc1C(=O)Nc1cccc(/C=C/C(=O)NO)c1` [CFH429], the IC50 is 657 nM. Still for that read-out and setting: the same measure for `O=C(CCCCNC(=O)c1nc(-c2ncc(-c3ccccc3)s2)sc1C1CC1)NO` [CFH443-5]: 32 nM; for `CC(C)Cc1sc(-c2nccs2)nc1C(=O)NCCCCC(=O)Nc1ccccc1N` [CFH494]: 5910 nM; for `CC(C)Cc1sc(-c2nccs2)nc1C(=O)NCCCCCC(=O)Nc1ccccc1N` [CFH508]: 984 nM. On to `CC(C)Cc1sc(-c2nccs2)nc1C(=O)NCCCCCCC(=O)Nc1ccccc1N` [CFH522], for which the IC50 was 15300 nM.

For the origin of these results see patent US9216962B2 (priority 2011, dated 2015).
